Here are results for 3 compounds from ChEMBL document CHEMBL2401728, “An unexpected Dimroth rearrangement leading to annelated thieno[3,2-d][1,2,3]triazolo[1,5-a]pyrimidines with potent antitumor activity” (Eur J Med Chem, 2013).

A short description of experiment [1]: Cytotoxicity against human renal cancer cells assessed as cellular growth at 10 uM after 48 hrs by SRB assay relative to control. Type of experiment: functional, Cancer cell lines.
Experiment [2] can be described thus: Cytotoxicity against human ovarian cancer cells assessed as cellular growth at 10 uM after 48 hrs by SRB assay relative to control. The format is functional, Cancer cell lines.
Experiment [3] in a line: Cytotoxicity against human prostate cancer cells assessed as cellular growth at 10 uM after 48 hrs by SRB assay relative to control. The format is functional, Cancer cell lines.
Experiment [4] in a line: Cytotoxicity against human non-small cell lung cancer cells assessed as cellular growth at 10 uM after 48 hrs by SRB assay relative to control. Type of experiment: functional, Cancer cell lines.
Experiment [5] in a line: Cytotoxicity against human melanoma cells assessed as cellular growth at 10 uM after 48 hrs by SRB assay relative to control. The format is functional, Melanoma cell.
Experiment [6] is described as follows: Cytotoxicity against human leukemia cells assessed as cellular growth at 10 uM after 48 hrs by SRB assay relative to control. Type of experiment: functional, Leukemia cell.
Experiment [7] is described as follows: Cytotoxicity against human colon cancer cells assessed as cellular growth at 10 uM after 48 hrs by SRB assay relative to control. The format is functional, Cancer cell lines.
Experiment [8] is described as follows: Cytotoxicity against human CNS cancer cells assessed as cellular growth at 10 uM after 48 hrs by SRB assay relative to control. The format is functional, Cancer cell lines.
Experiment [9] is described as follows: Cytotoxicity against human breast cancer cells assessed as cellular growth at 10 uM after 48 hrs by SRB assay relative to control. The format is functional, Cancer cell lines.
The next experiment deals with MCF7. As to the kind of experiment: Cytotoxicity against human MCF7 cells after 48 hrs by SRB assay. Type of experiment: functional. The note with it: MCF7, 48 h.
In the next experiment the test system is MDA-MB-435. As to the kind of experiment: Cytotoxicity against human MDA-MB-435 cells after 48 hrs by SRB assay. Type of experiment: functional. The note with it: MDA-MB-435, 48 h, read-out: pLC50 (the source's name) (converted).
For another experiment, the system named is SNB-19. As to the kind of experiment: Cytotoxicity against human SNB19 cells after 48 hrs by SRB assay. The note with it: SNB-19, 48 h, read-out: pLC50 (the source's name) (converted). The format is functional.
The next experiment deals with HCT-15. As to the kind of experiment: Cytotoxicity against human HCT15 cells after 48 hrs by SRB assay. The format is functional. The note with it: HCT-15, 48 h, read-out: pTGI (converted).
Another experiment has as its system HT-29. As to the kind of experiment: Cytotoxicity against human HT-29 cells after 48 hrs by SRB assay. Type of experiment: functional. The note with it: HT-29, 48 h, read-out: pLC50 (the source's name) (converted).
Another experiment deals with HCC 2998. As to the kind of experiment: Cytotoxicity against human HCC2998 cells after 48 hrs by SRB assay. Conditions: HCC 2998, 48 h, read-out: pLC50 (the source's name) (converted). The format is functional.
The test system of the next experiment is A549. As to the kind of experiment: Cytotoxicity against human A549 cells after 48 hrs by SRB assay. The format is functional. Conditions: A549, 48 h, read-out: pLC50 (converted).
Experiment [10] is described as follows: Cytotoxicity against human EKVX cells after 48 hrs by SRB assay. Type of experiment: functional. The note with it: read-out: pLC50 (the source's name) (converted).
A further experiment relates to RPMI-8226. As to the kind of experiment: Cytotoxicity against human RPMI8226 cells after 48 hrs by SRB assay. The format is functional. Conditions: RPMI-8226, 48 h, read-out: pLC50 (converted).
The test system of a further experiment is K562. As to the kind of experiment: Cytotoxicity against human K562 cells after 48 hrs by SRB assay. The format is functional. The note with it: K562, 48 h, read-out: pLC50 (the source's name) (converted).
A further experiment concerns MOLT-4. As to the kind of experiment: Cytotoxicity against human MOLT4 cells after 48 hrs by SRB assay. Conditions: MOLT-4, 48 h, read-out: pLC50 (the source's name) (converted). Type of experiment: functional.
In a further experiment the test system is CCRF-CEM. As to the kind of experiment: Cytotoxicity against human CCRF-CEM cells after 48 hrs by SRB assay. The format is functional.

In the case of `O=C(CCCn1c(=O)c2sc3ncccc3c2n2nnc(-c3ccccc3)c12)NCCc1c[nH]cn1`, the Activity in [1] was determined as 79%; in experiment [2] it was 59%; in [3], 46%; in experiment [4] it was 88%; in experiment [5], 71%; in experiment [6], 61%. Besides, the Activity came to 49% in experiment [7], 60% in experiment [8] and 79% in [9]. Besides, the LC50 in the experiment on MCF7 (read-out: pLC50 (converted)) is more than 100 µM. Besides, the TGI in the experiment with MCF7 (read-out: pTGI (converted)) and in the experiment on HCT-15 was 100 µM throughout. Further, the CC50 (in the experiment with MDA-MB-435; in the experiment on SNB-19; in the experiment with HT-29; in the experiment on HCC 2998; in the experiment with A549; in [10]) was more than 100 µM throughout. The CC50 in the experiment with RPMI-8226, in the experiment with K562, in the experiment with MOLT-4 and in the experiment on CCRF-CEM (read-out: pLC50 (the source's name) (converted)) was more than 100 µM throughout.
For the compound `O=C(CCCn1c(=O)c2sc3ccccc3c2n2nnc(-c3ccccc3)c12)NCCc1c[nH]cn1`, the Activity in [1] is listed as -34%; in [2], -16%; in experiment [3], -41%; in experiment [4], -26%; in experiment [5] it was -57%; in [6] it was 71%. In addition, the Activity is on record as -49% in experiment [7], -18% in experiment [8] and -5% in experiment [9]. For the same compound, the TGI with CCRF-CEM (read-out: pTGI (converted)) is 100 µM.
Regarding `CN1CCN(CCCn2c(=O)c3sc4ncccc4c3n3nnc(-c4ccccc4)c23)CC1`, the Activity in [1] is reported as -14%; in experiment [2], 7%; in [3] it was 39%; in [4], 14%; in experiment [5], -78%; in [6] it was -22%. The Activity in [7] is -37%; in [8] it was -43%; in [9], -23%.
